From the NIST ThermoML archive (doi:10.1016/j.fluid.2008.03.004)

Experiment: xn = mol fraction of the nth substance listed
Settings: 101 kPa, Liquid; for speed of sound: Sing-around technique in a fixed-path interferometer

CCOC(C)(C)C [2-ethoxy-2-methylpropane] + Cc1cccc(C)c1
Settings	mass density [kg/m3]	speed of sound [m/s]
288.15 K, x1 = 0.05	862.187	1345.6
288.15 K, x1 = 0.099	856.037	1332.2
288.15 K, x1 = 0.2	843.698	1303.2
288.15 K, x1 = 0.3	831.159	1274.6
288.15 K, x1 = 0.4	818.865	1245.5
288.15 K, x1 = 0.497	806.713	1217.2
288.15 K, x1 = 0.598	794.326	1188.6
288.15 K, x1 = 0.698	782.295	1161.7
288.15 K, x1 = 0.8	770.134	1133.6
288.15 K, x1 = 0.898	757.936	1106.8
288.15 K, x1 = 0.95	751.668	1092.8
288.15 K, x1 = 1	744.955	1076.4
290.65 K, x1 = 0.05	860.034	1334.7
290.65 K, x1 = 0.099	853.866	1321.5
290.65 K, x1 = 0.2	841.488	1292.6
290.65 K, x1 = 0.3	828.907	1263.8
290.65 K, x1 = 0.4	816.576	1234.8
290.65 K, x1 = 0.497	804.386	1206.4
290.65 K, x1 = 0.598	791.955	1177.8
290.65 K, x1 = 0.698	779.883	1150.8
290.65 K, x1 = 0.8	767.68	1122.5
290.65 K, x1 = 0.898	755.44	1096
290.65 K, x1 = 0.95	749.148	1081.9
290.65 K, x1 = 1	742.482	1065.1
293.15 K, x1 = 0.05	857.873	1324.1
293.15 K, x1 = 0.099	851.684	1310.9
293.15 K, x1 = 0.2	839.267	1282
293.15 K, x1 = 0.3	826.644	1253.1
293.15 K, x1 = 0.4	814.272	1224.1
293.15 K, x1 = 0.497	802.042	1195.6
293.15 K, x1 = 0.598	789.571	1167
293.15 K, x1 = 0.698	777.456	1140
293.15 K, x1 = 0.8	765.209	1111.5
293.15 K, x1 = 0.898	752.927	1085.2
293.15 K, x1 = 0.95	746.612	1070.8
293.15 K, x1 = 1	739.947	1053.7
295.65 K, x1 = 0.05	855.708	1313.4
295.65 K, x1 = 0.099	849.502	1300.3
295.65 K, x1 = 0.2	837.044	1271.3
295.65 K, x1 = 0.3	824.379	1242.3
295.65 K, x1 = 0.4	811.966	1213.3
295.65 K, x1 = 0.497	799.693	1184.7
295.65 K, x1 = 0.598	787.18	1156
295.65 K, x1 = 0.698	775.026	1129.1
295.65 K, x1 = 0.8	762.735	1100.5
295.65 K, x1 = 0.898	750.406	1074.1
295.65 K, x1 = 0.95	744.068	1059.8
295.65 K, x1 = 1	737.374	1042.2
298.15 K, x1 = 0.05	853.541	1302.9
298.15 K, x1 = 0.099	847.315	1289.8
298.15 K, x1 = 0.2	834.815	1260.8
298.15 K, x1 = 0.3	822.108	1231.6
298.15 K, x1 = 0.4	809.656	1202.6
298.15 K, x1 = 0.497	797.343	1173.8
298.15 K, x1 = 0.598	784.785	1145.1
298.15 K, x1 = 0.698	772.587	1118.2
298.15 K, x1 = 0.8	760.251	1089.5
298.15 K, x1 = 0.898	747.878	1063
298.15 K, x1 = 0.95	741.515	1048.7
298.15 K, x1 = 1	734.806	1031
300.65 K, x1 = 0.05	851.372	1292.5
300.65 K, x1 = 0.099	845.128	1279.3
300.65 K, x1 = 0.2	832.584	1250.2
300.65 K, x1 = 0.3	819.837	1221
300.65 K, x1 = 0.4	807.341	1191.8
300.65 K, x1 = 0.497	794.987	1163.1
300.65 K, x1 = 0.598	782.385	1134.2
300.65 K, x1 = 0.698	770.145	1107.3
300.65 K, x1 = 0.8	757.762	1078.4
300.65 K, x1 = 0.898	745.343	1051.9
300.65 K, x1 = 0.95	738.954	1037.6
300.65 K, x1 = 1	732.225	1019.8
303.15 K, x1 = 0.05	849.201	1282.1
303.15 K, x1 = 0.099	842.934	1268.9
303.15 K, x1 = 0.2	830.351	1239.8
303.15 K, x1 = 0.3	817.559	1210.3
303.15 K, x1 = 0.4	805.022	1181.2
303.15 K, x1 = 0.497	792.628	1152.3
303.15 K, x1 = 0.598	779.979	1123.3
303.15 K, x1 = 0.698	767.695	1096.3
303.15 K, x1 = 0.8	755.266	1067.5
303.15 K, x1 = 0.898	742.8	1040.8
303.15 K, x1 = 0.95	736.382	1026.5
303.15 K, x1 = 1	729.647	1008.6
305.65 K, x1 = 0.05	–	1271.7
305.65 K, x1 = 0.099	–	1258.6
305.65 K, x1 = 0.2	–	1229.3
305.65 K, x1 = 0.3	–	1199.8
305.65 K, x1 = 0.4	–	1170.5
305.65 K, x1 = 0.497	–	1141.6
305.65 K, x1 = 0.598	–	1112.5
305.65 K, x1 = 0.698	–	1085.4
305.65 K, x1 = 0.8	–	1056.5
305.65 K, x1 = 0.898	–	1029.8
305.65 K, x1 = 0.95	–	1015.3
305.65 K, x1 = 1	–	997.52
